Data: patent US6767725B2, “Acetyl amino acid racemase from amycolatopsis orientalis for racemizing carbamoyl amino acids” (Degussa AG, priority 2000, dated 2004)

The molecules below were run against T1, N-acyl amino acid racemase from A. TS-1-60 (Amycolatopsis sp, UniProt Q44244) (assay: Racemase activity of the N-acyl amino acid racemase from A. TS-1-60). Settings: N-carbamoyl-D-Met as substrate.
T1 sequence (Q44244 1-368): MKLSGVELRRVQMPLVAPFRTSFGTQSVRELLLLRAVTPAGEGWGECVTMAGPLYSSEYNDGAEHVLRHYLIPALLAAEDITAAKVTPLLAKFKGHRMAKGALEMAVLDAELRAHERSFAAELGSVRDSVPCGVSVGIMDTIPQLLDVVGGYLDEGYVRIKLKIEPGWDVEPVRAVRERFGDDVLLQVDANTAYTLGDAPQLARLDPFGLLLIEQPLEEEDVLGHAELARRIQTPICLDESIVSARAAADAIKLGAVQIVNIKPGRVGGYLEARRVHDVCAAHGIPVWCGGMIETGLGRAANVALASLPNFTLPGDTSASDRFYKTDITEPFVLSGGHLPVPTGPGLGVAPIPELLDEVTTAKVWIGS
Format: biochemical, Amycolatopis sp. TS-1-60
Text: The N-acyl amino acid racemase from A. TS-1-60 with N-carbamoyl-D-Met as substrate has an activity of 100 mU/mg. This specific activity is thus 35% lower than that of the racemase from A. orientalis subsp. lurida.

`CSCC[C@@H](NC(N)=O)C(=O)O` [N-Carbamoyl-D-Met] was tested, and the “activity (specific activity) of the racemase from A. TS-1-60” value was 100 mU/mg.

Same assay, conditions: TS-1-60 racemase versus A. orientalis subsp. lurida racemase, N-carbamoyl-D-Met as substrate

In the case of `CSCC[C@@H](NC(N)=O)C(=O)O` [N-Carbamoyl-D-Met], the “specific activity lower than that of the racemase from A. orientalis subsp. lurida” value is reported as 35%.

The molecules below were run on N-acetyl amino acid racemase from Amycolatopsis orientalis subsp. lurida (assay: Detection of racemase activity of recombinant AAR (polarimetric racemization assay)). Settings: substrate 25 mM, Tris/HCl 50 mM pH 8.0, cobalt chloride 6 mM, approx 150 μg purified protein, 30° C., 3 to 12 hours, polarimeter λ=365 nm.
Format: biochemical
Experimental: The substrate spectrum of the N-acetyl amino acid racemase from Amycolatopsis orientalis subsp. lurida was tested using the enzyme assay described below. The assay was composed of the following: [table] Enantiomerically pure amino acid derivatives were used in the test and the formation of the corresponding racemate was monitored in the polarimeter (Perkin-Elmer 241). Incubation took place at 30° C. (heated cell) for 3 to 12 hours. The measurements were taken at a wave length of λ=365 nm.

First: CSCC[C@@H](NC(N)=O)C(=O)O [N-Carbamoyl-D-Met]
Second: NC(=O)N[C@H](Cc1ccccc1)C(=O)O [N-Carbamoyl-D-Phe]
The “Specific activity of the AAR” value of the first is higher: 155 mU/mg for the first, 20 mU/mg for the second.

First: CC(C)C[C@H](NC(N)=O)C(=O)O [N-Carbamoyl-L-Leu]
Second: CSCC[C@H](NC(N)=O)C(=O)O [N-Carbamoyl-L-Met]
The “Specific activity of the AAR” value of the first is lower: 20 mU/mg for the first, 118 mU/mg for the second.

First: NC(=O)N[C@@H](Cc1ccc(O)cc1)C(=O)O [N-Carbamoyl-L-Tyr]
Second: CC(C)[C@H](NC(N)=O)C(=O)O [N-Carbamoyl-L-Val]
The “Specific activity of the AAR” value of the first is higher: 62 mU/mg for the first, 20 mU/mg for the second.

In the case of N-Carbamoyl-L-Abs, the “Specific activity of the AAR” value is reported as 15 mU/mg.
